According to paper PMC10320503, “Rapid-reaction kinetics of the butyryl-CoA dehydrogenase component of the electron-bifurcating crotonyl-CoA-dependent NADH:ferredoxin oxidoreductase from Megasphaera elsdenii” (The Journal of Biological Chemistry, 2023):

Columns and labels:
[1] = target: T1, bcd (butyryl-CoA dehydrogenase) (Megasphaera elsdenii, UniProt Q06319); assay: stopped-flow reoxidation of reduced bcd; charge-transfer complex absorbance; type: biochemical; conditions: dithionite-reduced bcd, 50 mM Tris-HCl, 150 mM NaCl, pH 7.5, 10 °C, anaerobic
T1 construct: isolated bcd component without EtfAB, C-terminal Strep II tag (pASG-IBA3), expressed in E. coli BL21; FAD-loaded, CoA persulfide removed by dithionite
T1 sequence (Q06319 1-383): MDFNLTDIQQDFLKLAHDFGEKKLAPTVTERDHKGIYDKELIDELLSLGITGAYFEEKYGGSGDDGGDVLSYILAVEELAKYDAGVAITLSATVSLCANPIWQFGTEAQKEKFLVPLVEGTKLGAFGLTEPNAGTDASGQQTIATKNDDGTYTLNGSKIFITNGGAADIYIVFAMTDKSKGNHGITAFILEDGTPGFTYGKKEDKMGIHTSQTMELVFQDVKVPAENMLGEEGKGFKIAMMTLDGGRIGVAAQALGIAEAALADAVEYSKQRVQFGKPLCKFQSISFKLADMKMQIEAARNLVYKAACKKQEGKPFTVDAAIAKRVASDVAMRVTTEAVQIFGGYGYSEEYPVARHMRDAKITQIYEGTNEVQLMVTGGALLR

[2] = target: T1, bcd (butyryl-CoA dehydrogenase); assay: UV-visible titration and EPR of the bound flavin; type: binding; conditions: dithionite titrations at pH 6.0, 7.5 and 9.0, 25 °C; EPR at 77 K
[3] = target: T1, bcd (butyryl-CoA dehydrogenase); assay: stopped-flow reduction of bcd FAD at […] nm, hyperbolic fit of kobs versus [butyryl-CoA]; type: biochemical; conditions: oxidized bcd 10 μM, 50 mM Tris-HCl, 150 mM NaCl, pH 7.5, 10 °C, anaerobic; reverse of the physiological direction; read-out: Kd (apparent)
[4] = target: T2, EtfAB, the electron-transferring flavoprotein component of the crotonyl-CoA-dependent NADH:ferredoxin … (Megasphaera elsdenii, UniProt O85692 1-338; O85691 1-270); assay: stopped-flow spectrophotometry (rate of electron transfer against protein concentration); prereduced EtfAB mixed with oxidized bcd, anaerobic, monitored at 450 nm; 1:1 ratio at 2 to 70 uM, or 3 uM EtfAB with 3 to 24 uM bcd; 50 mM Tris-HCl, 150 mM NaCl, pH 7.5, 25 C; Kd limit inferred from the rate constant being independent of concentration; conditions: both partners purified
T2 construct: Electron-transferring flavoprotein alpha subunit (EtfA), Megasphaera elsdenii; Electron-transferring flavoprotein beta subunit (EtfB), Megasphaera elsdenii; prereduced with sodium dithionite before the assay; Plasmid derived from pASG-IBA3; also called prereduced EtfAB; source: E. coli BL21, purified (Strep-Tactin XT Superflow)
T2 sequence (looked up) 1: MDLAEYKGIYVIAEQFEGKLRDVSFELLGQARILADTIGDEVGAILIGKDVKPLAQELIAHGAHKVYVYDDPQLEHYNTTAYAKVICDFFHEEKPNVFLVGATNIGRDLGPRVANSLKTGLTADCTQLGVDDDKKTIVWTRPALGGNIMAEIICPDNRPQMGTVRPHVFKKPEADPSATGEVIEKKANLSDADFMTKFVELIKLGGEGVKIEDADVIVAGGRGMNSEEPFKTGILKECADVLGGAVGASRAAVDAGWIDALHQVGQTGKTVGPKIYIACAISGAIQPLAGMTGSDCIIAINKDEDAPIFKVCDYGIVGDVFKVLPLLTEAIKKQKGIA
T2 sequence (looked up) 2: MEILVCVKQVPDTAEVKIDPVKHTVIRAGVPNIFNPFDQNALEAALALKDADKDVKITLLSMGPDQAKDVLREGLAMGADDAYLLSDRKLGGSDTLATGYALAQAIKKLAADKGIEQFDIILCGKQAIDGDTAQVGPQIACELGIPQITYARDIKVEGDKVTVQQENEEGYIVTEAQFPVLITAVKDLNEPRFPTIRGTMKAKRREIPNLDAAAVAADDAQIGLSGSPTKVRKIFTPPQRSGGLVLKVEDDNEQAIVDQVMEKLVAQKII

Question: C/C=C/C(=O)SCCNC(=O)CCNC(=O)[C@H](O)C(C)(C)COP(=O)(O)OP(=O)(O)OC[C@H]1O[C@@H](n2cnc3c(N)ncnc32)[C@H](O)[C@@H]1OP(=O)(O)O [crotonyl-CoA] was tested. Which “stopped-flow reoxidation of reduced bcd; charge-transfer complex absorbance” value [1] did it give?
Answer: The value was “indicating extremely rapid and tight binding of crotonyl-CoA to bcd”.

Question: Cc1cc2nc3c(=O)[nH]c(=O)nc-3n(C[C@H](O)[C@H](O)[C@H](O)COP(=O)(O)OP(=O)(O)OC[C@H]3O[C@@H](n4cnc5c(N)ncnc54)[C@H](O)[C@@H]3O)c2cc1C [FAD] was tested. Which “UV-visible titration and EPR of the bound flavin” value [2] did it give?
Answer: Its value is “the one-electron reduced FAD neutral semiquinone (FADH•) accumulates transiently”.

Question: Which Kd [3] does the source give for CCCC(=O)SCCNC(=O)CCNC(=O)[C@H](O)C(C)(C)COP(=O)(O)OP(=O)(O)OC[C@H]1O[C@@H](n2cnc3c(N)ncnc32)[C@H](O)[C@@H]1OP(=O)(O)O [butyryl-CoA] here?
Answer: The Kd was 60 µM.

B1: butyryl-CoA dehydrogenase (bcd) component of EtfAB-bcd from Megasphaera elsdenii (enzyme)
chain: MDFNLTDIQQDFLKLAHDFGEKKLAPTVTERDHKGIYDKELIDELLSLGITGAYFEEKYGGSGDDGGDVLSYILAVEELAKYDAGVAITLSATVSLCANPIWQFGTEAQKEKFLVPLVEGTKLGAFGLTEPNAGTDASGQQTIATKNDDGTYTLNGSKIFITNGGAADIYIVFAMTDKSKGNHGITAFILEDGTPGFTYGKKEDKMGIHTSQTMELVFQDVKVPAENMLGEEGKGFKIAMMTLDGGRIGVAAQALGIAEAALADAVEYSKQRVQFGKPLCKFQSISFKLADMKMQIEAARNLVYKAACKKQEGKPFTVDAAIAKRVASDVAMRVTTEAVQIFGGYGYSEEYPVARHMRDAKITQIYEGTNEVQLMVTGGALLR
notes: Butyryl-CoA dehydrogenase, Megasphaera elsdenii, locus tag Mels_2128; oxidized form in the assay; Plasmid derived from pASG-IBA3; also called oxidized bcd; source: E. coli BL21, purified (Strep-Tactin XT Superflow)
Question: Which Kd [4] does the source give for B1 here?
Answer: The Kd was less than 2 µM.
